The values below are quoted from earlier work in patent publication US12116608B2, “Extended metabolism methods for increasing and extracting metabolites from algae and microorganisms” (Synergraze Inc., priority 2022, dated 2024).

Each structure is given as a SMILES string.

The conditions of the data set: general description.

As to `BrC(Br)Br` [bromoform], the solubility in water entry is “soluble in water”.
